Experimental data published in US6683079B2, “3-(amino-or aminoalkyl) pyridinone derivatives and their use for the treatment of HIV related diseases” (Centre National de la Recherche Scientifique, priority 1998, dated 2004).

Experiments:
HIV-1 strain IIIB = assay: Retrovirucidal effect on HIV-1 strain IIIB (Table 3); type: cell-based
Experimental: (§1) HIV-1 viral suspensions were obtained by coculture of MT4 cells and H9 cells chronically infected by HIV-ILai isolate. 200 μl of a cell supernatant containing viral particles (HIV-ILai: 100 TCID50) were incubated at room temperature with various concentrations of different inhibitors. After 3 hours, virions were washed through 0.02 μm anopore membrane in 1.5 mL Vectaspin tube (Whatman) for 10 minutes at 5 000 g. Each of the three subsequent washes was performed in the same conditions after the viral concentrate was refilled with 500 μL of RPMI medium. Then, the viral concentrate was readjusted to the initial volume with RPMI plus 10% foetal calf serum (FCS). The residual infectivity was assayed on P4 cells as described by CHARNEAU et al. (1994, J. Mol. Biol., 241, 651-662). Briefly, P4 cells were plated using 100 μL of DMEM medium plus 10% FCS in 96 plate multi-wells at 20×10^5 cells per mL. After overnight incubation at 37° C., the supernatant was discarded and the viral preparation (200 μL) was added. One day later the wells were washed three times in PBS. Each well was refilled with 200 μL of a reaction buffer containing 50 mM Tris-HCl pH 8.5, 100 mM 2-mercaptoethanol, 0.05% Triton X-100 and 5 mM 4-methylumbelliferyl β-D-galactopyranoside (MUG). After 3 hours at 37° C., the level of the reaction was measured in a fluorescence microplate reader.
(§2) The retrovirucidal effect of each pyridinone derivative listed in table 3 has been assayed according to the teachings of example 2, excepted that the anti-viral effect has been tested on the two following HIV-1 strains:
a) HIV-1 strain IIIB (see example 2);

HIV-1 strain 103 N = assay: Retrovirucidal effect on HIV-1 strain 103 N (Table 3); type: cell-based; conditions: HIV-1 strain 103N (RT Lys-103 to Asn mutant); pIC50=-log IC50, IC50 in M
Experimental: as §1, §2
b) HIV-1 strain 103 N which is a mutant strain bearing a point mutation in the reverse transcriptase gene leading to an enzyme wherein the initial Lys-103 residue is replaced for a Asn residue.
The HIV-1 103 N strain has also been described by SAHLBERG et al.,(1998, Antiviral Res., 37 (3): ASS) and BALZARiNI et al. (1996, Antimicrobial Agents and Chemotherapy, 40 (6): 1454-1466).

[1] = retrovirucidal effect, pIC50=-log IC50 (M)

`CCc1c(C)[nH]c(=O)c(N(C)C)c1Cc1cc(F)cc(F)c1` [Compound 38] was tested, and the “HIV1 pIC50 strain IIIB” value (HIV-1 strain IIIB; pIC50=-log IC50, IC50 in M) was 8.155 and the “HIV1 pIC50 strain 103N” value (HIV-1 strain 103 N) was 7.402.

With `CCc1cccc(Cc2c(CC)c(C)[nH]c(=O)c2N(C)C)c1` [Compound 99] the “HIV1 pIC50 strain IIIB” value (HIV-1 strain IIIB; pIC50=-log IC50, IC50 in M) was 8.569 and the “HIV1 pIC50 strain 103N” value (HIV-1 strain 103 N) was 6.718.

For `CCc1c(C)[nH]c(=O)c(N(C)C(C)C)c1Cc1cc(C)cc(C)c1` [Compound 79], the “HIV1 pIC50 strain IIIB” value (HIV-1 strain IIIB; pIC50=-log IC50, IC50 in M) was 6.987 and the “HIV1 pIC50 strain 103N” value (HIV-1 strain 103 N) was 5.47.

`CCc1c(C)[nH]c(=O)c(N(C)C)c1Cc1cccc(F)c1` [Compound 42] was tested, and the “HIV1 pIC50 strain IIIB” value (HIV-1 strain IIIB; pIC50=-log IC50, IC50 in M) was 8.569 and the “HIV1 pIC50 strain 103N” value (HIV-1 strain 103 N) was 7.18.

In the case of `CCCc1cccc(Cc2c(CC)c(C)[nH]c(=O)c2N)c1` [Compound 103], the “HIV1 pIC50 strain IIIB” value (HIV-1 strain IIIB; pIC50=-log IC50, IC50 in M) was 5.747.

For `CCc1c(C)[nH]c(=O)c(N(C)C)c1C(=O)c1cc(C)cc(C)c1` [Compound 35], the “HIV1 pIC50 strain IIIB” value (HIV-1 strain IIIB; pIC50=-log IC50, IC50 in M) was 8.585 and the “HIV1 pIC50 strain 103N” value (HIV-1 strain 103 N) was 7.987.

With `CCc1c(C)[nH]c(=O)c(N(C)C)c1Cc1cccc(C)c1C` [Compound 20] the “HIV1 pIC50 strain IIIB” value (HIV-1 strain IIIB; pIC50=-log IC50, IC50 in M) was 6.926 and the “HIV1 pIC50 strain 103N” value (HIV-1 strain 103 N) was 5.585.

`CCc1c(C)[nH]c(=O)c(N)c1Cc1cc(C)cc(C)c1` [Compound 5] was tested, and the “HIV1 pIC50 strain IIIB” value (HIV-1 strain IIIB; pIC50=-log IC50, IC50 in M) was 6.261 and the “HIV1 pIC50 strain 103N” value (HIV-1 strain 103 N) was 5.636.

`CCc1c(C)[nH]c(=O)c(N(C)C)c1CNc1cccc(C)c1` [Compound 163] was tested, and the “HIV1 pIC50 strain IIIB” value (HIV-1 strain IIIB; pIC50=-log IC50, IC50 in M) was 5.596 and the “HIV1 pIC50 strain 103N” value (HIV-1 strain 103 N) was 4.236.

In the case of `Cc1cc(C)cc(Cc2c(C)c(C(C)C)[nH]c(=O)c2N(C)C)c1` [Compound 119], the “HIV1 pIC50 strain IIIB” value (HIV-1 strain IIIB; pIC50=-log IC50, IC50 in M) was 6.114.

With `Cc1c[nH]c(=O)c(N)c1SCc1ccccc1` [Compound 198] the “HIV1 pIC50 strain IIIB” value (HIV-1 strain IIIB; [1]) was 4.457.

For `CCc1c(C)[nH]c(=O)c(N(C)C)c1Cc1cccc2ccccc12` [Compound 116], the “HIV1 pIC50 strain IIIB” value (HIV-1 strain IIIB; pIC50=-log IC50, IC50 in M) was 6.627.

With `CCc1c(C)[nH]c(=O)c(N)c1C(=O)c1ccc(Br)s1` [Compound 194] the “HIV1 pIC50 strain IIIB” value (HIV-1 strain IIIB; pIC50=-log IC50, IC50 in M) was 4.665.

For `CCc1c(C)[nH]c(=O)c(N(CC)CC)c1C(=O)c1cccc(C)c1` [Compound 95], the “HIV1 pIC50 strain IIIB” value (HIV-1 strain IIIB; pIC50=-log IC50, IC50 in M) was 8.268.

For `Cc1cccc(C(=O)c2c(C)c(C)[nH]c(=O)c2N)c1` [Compound 94], the “HIV1 pIC50 strain IIIB” value (HIV-1 strain IIIB; pIC50=-log IC50, IC50 in M) was 5.153.

In the case of `CCc1c(C)[nH]c(=O)c(N(C)CCC(C)C)c1Cc1cccc(C)c1` [Compound 155], the “HIV1 pIC50 strain IIIB” value (HIV-1 strain IIIB; pIC50=-log IC50, IC50 in M) was 7.514.

`CCc1c(C)[nH]c(=O)c(N)c1Cc1cc(Cl)cc(Cl)c1` [Compound 189] was tested, and the “HIV1 pIC50 strain IIIB” value (HIV-1 strain IIIB; pIC50=-log IC50, IC50 in M) was 6.401.

In the case of `CCc1c(C)[nH]c(=O)c(N)c1Sc1cccc(C)c1` [Compound 159], the “HIV1 pIC50 strain IIIB” value (HIV-1 strain IIIB; pIC50=-log IC50, IC50 in M) was 7.011.

`CCc1c(C)[nH]c(=O)c(N)c1C(=O)c1cc(Cl)cc(Cl)c1` [Compound 190] was tested, and the “HIV1 pIC50 strain IIIB” value (HIV-1 strain IIIB; pIC50=-log IC50, IC50 in M) was 7.757.

`CCc1c(C)[nH]c(=O)c(N(C)C)c1C(=O)c1cccc(CO)c1` [Compound 128] was tested, and the “HIV1 pIC50 strain IIIB” value (HIV-1 strain IIIB; pIC50=-log IC50, IC50 in M) was 7.848.

`Cc1cc(C)cc(Cc2c(Cl)c[nH]c(=O)c2N(C)C)c1` [Compound 106] was tested, and the “HIV1 pIC50 strain IIIB” value (HIV-1 strain IIIB; pIC50=-log IC50, IC50 in M) was 7.063.

With `CCc1c(C)[nH]c(=O)c(N)c1Cc1ccc2c(c1)OCO2` [Compound 141] the “HIV1 pIC50 strain IIIB” value (HIV-1 strain IIIB; pIC50=-log IC50, IC50 in M) was 4.642.

In the case of `CCc1c(C)[nH]c(=O)c(N(C)C)c1Cc1ccc(Cl)cc1` [Compound 55], the “HIV1 pIC50 strain IIIB” value (HIV-1 strain IIIB; pIC50=-log IC50, IC50 in M) was 6.651.

With `CCc1c(C)[nH]c(=O)c(N)c1Cc1ccccc1Br` [Compound 202] the “HIV1 pIC50 strain IIIB” value (HIV-1 strain IIIB; [1]) was 5.715.

For `CCc1c(C)[nH]c(=O)c(N)c1Cc1cccc2ccccc12` [Compound 113], the “HIV1 pIC50 strain IIIB” value (HIV-1 strain IIIB; pIC50=-log IC50, IC50 in M) was 5.273.

`CCc1c(C)[nH]c(=O)c(N)c1Cc1ccc(OC)c(C)c1` [Compound 156] was tested, and the “HIV1 pIC50 strain IIIB” value (HIV-1 strain IIIB; pIC50=-log IC50, IC50 in M) was 4.934.

`CCc1c(C)[nH]c(=O)c(N(C)C)c1C(=O)c1cccc(COc2ccccc2)c1` [Compound 143] was tested, and the “HIV1 pIC50 strain IIIB” value (HIV-1 strain IIIB; pIC50=-log IC50, IC50 in M) was 7.421.

`CCc1c(C)[nH]c(=O)c(N)c1Cc1ccc2c(c1)OCCO2` [Compound 134] was tested, and the “HIV1 pIC50 strain IIIB” value (HIV-1 strain IIIB; pIC50=-log IC50, IC50 in M) was 4.056.

`CCc1c(C)[nH]c(=O)c(N)c1C(=O)c1cc(F)cc(C(F)(F)F)c1` [Compound 182] was tested, and the “HIV1 pIC50 strain IIIB” value (HIV-1 strain IIIB; pIC50=-log IC50, IC50 in M) was 5.933.

For `CCc1c(C)[nH]c(=O)c(N)c1C(=O)c1ccc2c(c1)OCO2` [Compound 150], the “HIV1 pIC50 strain IIIB” value (HIV-1 strain IIIB; pIC50=-log IC50, IC50 in M) was 4.881.

`CCOc1cccc(Cc2c(CC)c(C)[nH]c(=O)c2N(C)C)c1` [Compound 181] was tested, and the “HIV1 pIC50 strain IIIB” value (HIV-1 strain IIIB; pIC50=-log IC50, IC50 in M) was 7.928.

In the case of `CCc1c(C)[nH]c(=O)c(N(C)C)c1C(=O)c1ccc2c(c1)OCO2` [Compound 151], the “HIV1 pIC50 strain IIIB” value (HIV-1 strain IIIB; pIC50=-log IC50, IC50 in M) was 7.845.

For `CCCCc1cc(Cc2cc(C)cc(C)c2)c(N)c(=O)[nH]1` [Compound 89], the “HIV1 pIC50 strain IIIB” value (HIV-1 strain IIIB; pIC50=-log IC50, IC50 in M) was 6.237.

`CCc1c(C)[nH]c(=O)c(N(CCOC)CCOC)c1Cc1cccc(C)c1` [Compound 180] was tested, and the “HIV1 pIC50 strain IIIB” value (HIV-1 strain IIIB; pIC50=-log IC50, IC50 in M) was 5.988.
